In patent US20160193131A1, “METHOD FOR REDUCING SURFACE FREE ENERGY AND COMPOSITION HAVING REDUCED SURFACE FREE ENERGY” (KANEKA CORPORATION, priority 2013, published 2016):

How the values were obtained:
Assay type in all cases: physicochemical
[1] = Standing for one day at 25° C. and polarization microscope observation of deposits
Experimental: In addition, the above each dispersion was left to stand for one day at 25° C. […] The depositions were observed using a polarization microscope (“ECLIPSE E600”, manufactured by NIKON CORPORATION). The result is shown as FIG. 3. […] A lamellar liquid crystal may incorporate both of a hydrophilic substance and a lipophilic substance inside, since a lamellar liquid crystal has both of a hydrophilic part and a lipophilic part.

[2] = Surface tension measurement at 25° C. (DY-500); details: for surface tension reducing ability: 2 mass % in 20 vol % ethanol aqueous solution
Experimental: Then, an experiment for confirmation of effect of reducing surface free energy by SFNa in organic solvent was carried out. Specifically, SFNa and diethylene glycol (10 mL) was added in a test tube so that SFNa concentration became 2 mass % similarly to the above-described Example 1. The mixture was stirred using a vortex mixer for 3 minutes. The dispersion was transferred to a petri dish and left to stand. The surface tension was measured at 25° C. using a high function surface tension measuring device (“DY-500”, manufactured by Kyowa Interface Science Co., Ltd.). In addition, the surface tensions of diethylene glycol only and 2 mass % diethylene glycol solution of sodium dodecyl sulfate, i.e. “SDS”, were similarly measured as control.
An experiment for confirmation of effect of reducing surface free energy by SFNa in a mixed solvent of water and a water-miscible solvent was also carried out. Specifically, SFNa and 20 vol % ethanol aqueous solution (10 mL) was added in a test tube so that SFNa concentration became 2 mass % similarly to the above-described Example 1. The mixture was stirred using a vortex mixer for 3 minutes. In addition, 2 mass % SDS solution was obtained as control by dissolving SDS in 20 vol % ethanol aqueous solution.
In addition, the surface tension reducing ability of SFNa and SDS in 20 vol % ethanol aqueous solution was evaluated at 25° C. similarly to the above-described Example 2.
Furthermore, surface tension was measured similarly to the above-described Example 2 except that the organic solvent was changed from diethylene glycol to dimethylsulfoxide, i.e. DMSO.
An experiment for confirmation of effect of reducing surface free energy by SFNa in a mixed solvent which contained acetone as a water-miscible solvent was also carried out, since the secondary structure formation was confirmed in the above-described Example 5. Specifically, SFNa and 20 vol % or 50 vol % acetone aqueous solution (10 mL) were added in a test tube so that SFNa concentration became 1 mass % similarly to the above-described Example 1. The mixture was stirred using a vortex mixer for 3 minutes. In addition, 1 mass % SDS solution was obtained as control by dissolving SDS in 20 vol % or 50 vol % acetone aqueous solution. The dispersion was transferred to a petri dish and left to stand similarly to the above-described Example 2. The surface tension was measured at 25° C. using a high function surface tension measuring device (“DY-500”, manufactured by Kyowa Interface Science Co., Ltd.).

[3] = Secondary structure formation by circular dichroism dispersion meter
Experimental: Similarly to the above-described Example 1, SFNa and acetone (5 mL) was added in a test tube. The mixture was stirred using a vortex mixer for 3 minutes in order to prepare 0.1 mass %, 0.5 mass % or 1 mass % SFNa solution in acetone. Then, secondary structure formation of SFNa in the prepared acetone solutions was measured using a circular dichroism dispersion meter (“J-820”, manufactured by JASCO Corporation).
Similarly to the above-described Example 5, methanol (1 mL) and SFNa were measured off in a test tube, and the mixture was stirred using a vortex mixer for 3 minutes in order to prepare 0.01 to 1 mass % SFNa solutions in methanol. Then, secondary structure formation of SFNa in the prepared […] solutions was measured using a circular dichroism dispersion meter (“J-820”, manufactured by JASCO Corporation).
Similarly to the above-described Example 5, ethanol (1 mL) and SFNa were measured off in a test tube, and the mixture was stirred using a vortex mixer for 3 minutes in order to prepare 0.05 to 1 mass % SFNa solutions in ethanol. Then, secondary structure formation of SFNa in the prepared ethanol solutions was measured using a circular dichroism dispersion meter (“J-820”, manufactured by JASCO Corporation).
Similarly to the above-described Example 5, tetrahydrofuran (1 mL) and SFNa were measured off in a test tube, and the mixture was stirred using a vortex mixer for 3 minutes in order to prepare 0.5 mass % or 1 mass % SFNa solutions in tetrahydrofuran. Then, secondary structure formation of SFNa in the prepared tetrahydrofuran solutions was measured using a circular dichroism dispersion meter (“J-820”, manufactured by JASCO Corporation).

[4] = Particle size distribution by dynamic light scattering (micelle formation); details: DLS
Experimental: In a test tube, surfactin sodium salt (hereinafter, referred to as “SFNa”) and methanol (5 mL) or ethanol (5 mL) were added so that SFNa concentration became 2 mass %. The mixture was stirred using a vortex mixer for 3 minutes. A particle size distribution of the particles which were contained in each obtained dispersion was measured using a dynamic light scattering measuring device (product name: DLS-7000, manufactured by OTSUKA ELECTRON Co., Ltd.). In the measurement, Ar laser (λ=488 nm) was used as a light source and a scattering angle was adjusted to 90°. The result of the methanol dispersion is shown by FIG. 1 and the result of the ethanol dispersion is shown by FIG. 2.
First, an association behavior of SFNa was evaluated by a dynamic light scattering method as the above-described Example 1. As FIG. 4, a micelle having an average particle diameter of 44.8±7.7 nm was observed.

[5] = 1 mass % in 20 vol % acetone aqueous solution
[6] = 1 mass % in 50 vol % acetone aqueous solution
[7] = 2 mass % in 20 vol % ethanol aqueous solution

Row | appearance of dispersion after standing ([1]; 2 mass % ethanol dispersion) | appearance of dispersion after standing ([1]; 2 mass % methanol dispersion) | surface tension reducing effect [2, 5] | surface tension reducing ability [2] | Surface tension ([2]; 2 mass % in DMSO) [mN/m] | Surface tension ([2]; 2 mass % in diethylene glycol) [mN/m] | secondary structure formation (CD, negative peak near 200 nm) ([3]; 0.01 to 1 mass % in methanol) | secondary structure formation (CD, negative peak near 200 nm) ([3]; 0.05 to 1 mass % in ethanol) | secondary structure formation (CD, negative peak near 200 nm) ([3]; 0.1, 0.5 or 1 mass % in acetone) | secondary structure formation (CD, negative peak near 200 nm) ([3]; 0.5 or 1 mass % in tetrahydrofuran) | average particle diameter of micelle [4, 7] [nm] | average particle diameter of micelle ([4]; 2 mass % in ethanol) [nm] | average particle diameter of micelle ([4]; 2 mass % in methanol) [nm] | micelle observation [4, 7] | Compound | polarization microscope observation of deposits ([1]; 2 mass % ethanol dispersion) | surface tension reducing effect [2, 6]
1 | there were deposits | remained transparent | clearly superior to SDS | could clearly reduce the surface tension | 39.2 | 39.6 | forms secondary structure | forms secondary structure | forms secondary structure | forms secondary structure | 44.8±7.7 | 956.8±286.5 | 1035.1±230.7 |  | surfactin sodium salt [SFNa] | a Maltese Cross image which is characteristic of lamellar liquid crystal was observed | the surface tension could be clearly reduced
2 |  |  | reduced the surface tension | could not reduce the surface tension | 43.4 | 44.5 |  |  |  |  |  |  |  | a micelle cannot be observed | CCCCCCCCCCCCOS(=O)(=O)[O-].[Na+] [SDS, sodium dodecyl sulfate, reference compound] |  | could not reduce the surface tension
